Experimental data published in patent US20250179103A1, “6-OXODECAHYDROPYRROLO[1,2-A][1,5]DIAZOCINE AND 6-OXODECAHYDRO-4H-PYRROLO[2,1-D][1,5]THIAZOCINE DERIVATIVES AS STAT3 AND STAT6 MODULATORS FOR THE TREATMENT OF CANCER AND INFLAMMATORY CONDITIONS” (Recludix Pharma, Inc., priority 2022, published 2025).

Key:
[1] = target: T1, Recombinant STAT3 protein (STAT3(G127-I722)) (Homo sapiens, UniProt P40763); assay: STAT3 Fluorescence Polarization (FP) Assay; assay type: binding; conditions: STAT3(G127-I722) 25 nM, probe 5-FAM-GpYLPQTV-NH2 2 nM, 45-minute incubation
T1 construct: Recombinant STAT3 protein (STAT3(G127-I722))
T1 sequence (P40763 127-722): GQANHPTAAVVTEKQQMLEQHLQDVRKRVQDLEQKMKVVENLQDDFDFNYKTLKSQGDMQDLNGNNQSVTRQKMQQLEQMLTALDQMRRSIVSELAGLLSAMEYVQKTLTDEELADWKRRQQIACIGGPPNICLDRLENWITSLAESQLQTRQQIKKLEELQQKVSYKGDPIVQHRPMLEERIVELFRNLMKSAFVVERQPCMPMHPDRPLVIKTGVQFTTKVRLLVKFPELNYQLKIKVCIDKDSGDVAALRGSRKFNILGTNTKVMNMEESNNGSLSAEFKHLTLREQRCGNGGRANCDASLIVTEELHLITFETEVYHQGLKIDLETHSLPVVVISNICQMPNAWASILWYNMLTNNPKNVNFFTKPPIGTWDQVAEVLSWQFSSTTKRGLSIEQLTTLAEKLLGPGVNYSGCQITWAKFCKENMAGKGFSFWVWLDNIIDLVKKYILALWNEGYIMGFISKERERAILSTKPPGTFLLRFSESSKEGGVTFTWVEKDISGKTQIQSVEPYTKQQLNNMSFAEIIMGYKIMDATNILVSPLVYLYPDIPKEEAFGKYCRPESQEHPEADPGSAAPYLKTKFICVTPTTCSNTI
In short: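 STAT3(G127-I722), 25 nM, was mixed with 2 nM 5-FAM-GpYLPQTV-NH2 probe in HEPES pH 7.4 buffer with 1% DMSO and serially diluted compound. FP (mP) was read after 45 min at room temperature. IC50 came from nonlinear regression.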

[2] = target: T2, Recombinant STAT6 protein (STAT6(W123-T658)) (Homo sapiens, UniProt P42226); assay: STAT6 Fluorescence Polarization (FP) Assay; assay type: binding; conditions: STAT6(W123-T658) 250 nM, probe 5-FAM-ApYKPFQDLI-NH2 2 nM, 45-minute incubation
T2 construct: Recombinant STAT6 protein (STAT6(W123-T658))
T2 sequence (P42226 123-658): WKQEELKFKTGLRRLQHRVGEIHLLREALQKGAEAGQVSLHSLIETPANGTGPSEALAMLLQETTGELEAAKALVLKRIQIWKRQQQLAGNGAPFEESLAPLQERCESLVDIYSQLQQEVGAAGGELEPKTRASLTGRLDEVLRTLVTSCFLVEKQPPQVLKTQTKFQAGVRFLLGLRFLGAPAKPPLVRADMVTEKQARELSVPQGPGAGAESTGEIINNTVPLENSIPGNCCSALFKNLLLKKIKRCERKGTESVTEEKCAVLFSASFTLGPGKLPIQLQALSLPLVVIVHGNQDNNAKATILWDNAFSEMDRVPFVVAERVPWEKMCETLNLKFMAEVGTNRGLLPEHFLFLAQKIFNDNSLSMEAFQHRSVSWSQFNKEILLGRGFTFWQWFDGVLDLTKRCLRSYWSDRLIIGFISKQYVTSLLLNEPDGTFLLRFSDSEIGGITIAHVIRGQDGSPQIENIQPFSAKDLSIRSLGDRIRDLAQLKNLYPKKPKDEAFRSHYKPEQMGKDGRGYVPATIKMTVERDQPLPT
In short: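 Displacement of a fluorescent phosphotyrosine peptide (5-FAM-ApYKPFQDLI-NH2, 2 nM) from STAT6(W123-T658) (250 nM), 1% DMSO, pH 7.4 HEPES buffer. After 45 min at room temperature, polarization (mP) was plotted versus log compound concentration and fitted by nonlinear regression to give IC50.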

| IC50 [1] [µM] | IC50 [2] [µM] | Compound |
| --- | --- | --- |
| 1 to 10 | 0.3 to 3 | CN(C(=O)[C@@H]1CC[C@@H]2CCN(CC(F)F)C[C@H](NC(=O)c3ccc4ccc(C(F)(F)P(=O)(O)O)cc4c3)C(=O)N21)C1CCN(S(C)(=O)=O)CC1 [Compound 244, ((7-(((5S,8S,10aR)-3-(2,2-difluoroethyl)-8-(methyl(1-(methylsulfonyl)piperidin-4-yl)carbamoyl)-6-oxodecahydropyrrolo[1,2-a][1,5]diazocin-5-yl)carbamoyl)naphthalen-2-yl)difluoromethyl)phosphonic acid] |
| 0.1 to 1 | 0.3 to 3 | O=C(N[C@H]1CN(C(=O)NCc2ccccc2)CC[C@H]2CC[C@@H](C(=O)Nc3ccc(-c4ccccc4)cc3)N2C1=O)c1cc2cc(C(F)(F)P(=O)(O)O)ccc2s1 [Compound 251, ((2-(((5S,8S,10aR)-8-([1,1′-biphenyl]-4-ylcarbamoyl)-3-(benzylcarbamoyl)-6-oxodecahydropyrrolo[1,2-a][1,5]diazocin-5-yl)carbamoyl)benzo[b]thiophen-5-yl)difluoromethyl)phosphonic acid] |
| 1 to 10 | 0.3 to 3 | O=C(N[C@H]1CN(C(=O)OCc2ccccc2)CC[C@H]2CC[C@@H](C(=O)Nc3ccc(-c4ccccc4)cc3)N2C1=O)c1cc2cc(C(F)(F)P(=O)(O)O)ccc2s1 [Compound 252, ((2-(((5S,8S,10aR)-8-([1,1′-biphenyl]-4-ylcarbamoyl)-3-((benzyloxy)carbonyl)-6-oxodecahydropyrrolo[1,2-a][1,5]diazocin-5-yl)carbamoyl)benzo[b]thiophen-5-yl)difluoromethyl)phosphonic acid] |
| 1 to 10 | ≤ 0.3 | CN(C(=O)[C@@H]1CC[C@@H]2CCN(C(=O)CCc3ccccc3)C[C@H](NC(=O)c3cc4cc(C(F)(F)P(=O)(O)O)ccc4[nH]3)C(=O)N21)c1ccccc1 [Compound 253, (difluoro(2-(((5S,8S,10aR)-8-(methyl(phenyl)carbamoyl)-6-oxo-3-(3-phenylpropanoyl)decahydropyrrolo[1,2-a][1,5]diazocin-5-yl)carbamoyl)-1H-indol-5-yl)methyl)phosphonic acid] |
| 1 to 10 | 0.3 to 3 | C[C@@H](C(=O)N1CC[C@H]2CC[C@@H](C(=O)Nc3ccc(-c4ccccc4)cc3)N2C(=O)[C@@H](NC(=O)c2cc3cc(C(F)(F)P(=O)(O)O)ccc3[nH]2)C1)c1ccccc1 [Compound 254, ((2-(((5S,8S,10aR)-8-([1,1′-biphenyl]-4-ylcarbamoyl)-6-oxo-3-((R)-2-phenylpropanoyl)decahydropyrrolo[1,2-a][1,5]diazocin-5-yl)carbamoyl)-1H-indol-5-yl)difluoromethyl)phosphonic acid] |
| 0.1 to 1 | 0.3 to 3 | C[C@H](C(=O)N1CC[C@H]2CC[C@@H](C(=O)Nc3ccc(-c4ccccc4)cc3)N2C(=O)[C@@H](NC(=O)c2cc3cc(C(F)(F)P(=O)(O)O)ccc3[nH]2)C1)c1ccccc1 [Compound 255, ((2-(((5S,8S,10aR)-8-([1,1′-biphenyl]-4-ylcarbamoyl)-6-oxo-3-((S)-2-phenylpropanoyl)decahydropyrrolo[1,2-a][1,5]diazocin-5-yl)carbamoyl)-1H-indol-5-yl)difluoromethyl)phosphonic acid] |
| 0.1 to 1 | 3 to 30 | O=C(N[C@H]1CNCC[C@H]2CC[C@@H](C(=O)N3CC(C(=O)N4CCOCC4)C3)N2C1=O)c1cc2cc(C(F)(F)P(=O)(O)O)ccc2s1 [Compound 256, (difluoro(2-(((5S,8S,10aR)-8-(3-(morpholine-4-carbonyl)azetidine-1-carbonyl)-6-oxodecahydropyrrolo[1,2-a][1,5]diazocin-5-yl)carbamoyl)benzo[b]thiophen-5-yl)methyl)phosphonic acid] |
| 0.1 to 1 | 3 to 30 | CC(C)CN1CC[C@H]2CC[C@@H](C(=O)N3CC(C(=O)N4CCOCC4)C3)N2C(=O)[C@@H](NC(=O)c2cc3cc(C(F)(F)P(=O)(O)O)ccc3s2)C1 [Compound 257, (difluoro(2-(((5S,8S,10aR)-3-isobutyl-8-(3-(morpholine-4-carbonyl)azetidine-1-carbonyl)-6-oxodecahydropyrrolo[1,2-a][1,5]diazocin-5-yl)carbamoyl)benzo[b]thiophen-5-yl)methyl)phosphonic acid] |
| 1 to 10 | 0.3 to 3 | C[C@@H](Cc1ccccc1)C(=O)N1CC[C@H]2CC[C@@H](C(=O)N3CCCC3)N2C(=O)[C@@H](NC(=O)c2cc3cc(C(F)(F)P(=O)(O)O)ccc3s2)C1 [Compound 258, (difluoro(2-(((5S,8S,10aR)-3-((S)-2-methyl-3-phenylpropanoyl)-6-oxo-8-(pyrrolidine-1-carbonyl)decahydropyrrolo[1,2-a][1,5]diazocin-5-yl)carbamoyl)benzo[b]thiophen-5-yl)methyl)phosphonic acid] |
| 0.1 to 1 | 0.3 to 3 | C[C@H](Cc1ccccc1)C(=O)N1CC[C@H]2CC[C@@H](C(=O)N3CCCC3)N2C(=O)[C@@H](NC(=O)c2cc3cc(C(F)(F)P(=O)(O)O)ccc3s2)C1 [Compound 259, (difluoro(2-(((5S,8S,10aR)-3-((R)-2-methyl-3-phenylpropanoyl)-6-oxo-8-(pyrrolidine-1-carbonyl)decahydropyrrolo[1,2-a][1,5]diazocin-5-yl)carbamoyl)benzo[b]thiophen-5-yl)methyl)phosphonic acid] |
| 0.1 to 1 | 0.3 to 3 | C[C@H](CC(=O)N1CC[C@H]2CC[C@@H](C(=O)N3CCCC3)N2C(=O)[C@@H](NC(=O)c2cc3cc(C(F)(F)P(=O)(O)O)ccc3s2)C1)c1ccccc1 [Compound 260, (difluoro(2-(((5S,8S,10aR)-6-oxo-3-((R)-3-phenylbutanoyl)-8-(pyrrolidine-1-carbonyl)decahydropyrrolo[1,2-a][1,5]diazocin-5-yl)carbamoyl)benzo[b]thiophen-5-yl)methyl)phosphonic acid] |
| 0.1 to 1 | 0.3 to 3 | C[C@@H](CC(=O)N1CC[C@H]2CC[C@@H](C(=O)N3CCCC3)N2C(=O)[C@@H](NC(=O)c2cc3cc(C(F)(F)P(=O)(O)O)ccc3s2)C1)c1ccccc1 [Compound 261, (difluoro(2-(((5S,8S,10aR)-6-oxo-3-((S)-3-phenylbutanoyl)-8-(pyrrolidine-1-carbonyl)decahydropyrrolo[1,2-a][1,5]diazocin-5-yl)carbamoyl)benzo[b]thiophen-5-yl)methyl)phosphonic acid] |
| 1 to 10 | 0.3 to 3 | COC(=O)N1CC[C@H]2CC[C@@H](C(=O)N3CCCC3)N2C(=O)[C@@H](NC(=O)c2cc3cc(C(F)(F)P(=O)(O)O)ccc3s2)C1 [Compound 262, (difluoro(2-(((5S,8S,10aR)-3-(methoxycarbonyl)-6-oxo-8-(pyrrolidine-1-carbonyl)decahydropyrrolo[1,2-a][1,5]diazocin-5-yl)carbamoyl)benzo[b]thiophen-5-yl)methyl)phosphonic acid] |
| ≤ 0.1 | 3 to 30 | O=C(N[C@H]1CN(CC(F)F)CC[C@H]2CC[C@@H](C(=O)N3CC(C(=O)N4CCOCC4)C3)N2C1=O)c1cc2cc(C(F)(F)P(=O)(O)O)ccc2s1 [Compound 263, ((2-(((5S,8S,10aR)-3-(2,2-difluoroethyl)-8-(3-(morpholine-4-carbonyl)azetidine-1-carbonyl)-6-oxodecahydropyrrolo[1,2-a][1,5]diazocin-5-yl)carbamoyl)benzo[b]thiophen-5-yl)difluoromethyl)phosphonic acid] |
| 1 to 10 | 0.3 to 3 | CN(CC(C)(C)C#N)C(=O)[C@@H]1CC[C@@H]2CCN(CC(F)F)C[C@H](NC(=O)c3cc4cc(C(F)(F)P(=O)(O)O)ccc4s3)C(=O)N21 [Compound 264, ((2-(((5S,8S,10aR)-8-((2-cyano-2-methylpropyl)(methyl)carbamoyl)-3-(2,2-difluoroethyl)-6-oxodecahydropyrrolo[1,2-a][1,5]diazocin-5-yl)carbamoyl)benzo[b]thiophen-5-yl)difluoromethyl)phosphonic acid] |
| 1 to 10 | 0.3 to 3 | O=C(N[C@H]1CN(C(=O)Cc2ccccc2)CC[C@H]2CC[C@@H](C(=O)Nc3ccccc3-c3ccccc3)N2C1=O)c1cc2cc(C(F)(F)P(=O)(O)O)ccc2[nH]1 [Compound 265, ((2-(((5S,8S,10aR)-8-([1,1′-biphenyl]-2-ylcarbamoyl)-6-oxo-3-(2-phenylacetyl)decahydropyrrolo[1,2-a][1,5]diazocin-5-yl)carbamoyl)-1H-indol-5-yl)difluoromethyl)phosphonic acid] |
